Test results: patent US20160022769A1, “COMPOSTIONS AND METHODS FOR TREATING RETINAL DISEASE” (RETINAL SOLUTIONS LLC, priority 2013, published 2016)

Tests used:
[1] = test system: posterior capillary dropout in the retina; assay: oxygen-induced retinopathy (OIR) mouse model, fluorescein angiography of retinal capillary dropout; format: in vivo
Text: FIG. 2 is a montage of fluorescein angiograms depicting a retinal phenotype as observed in an OIR mouse, which highlights large areas of posterior capillary dropout in the retina.
Capillary drop out is a very serious problem for many retinal vascular diseases. […] See Trese, M. T. et al., Retinal Physician, April 2011.

[2] = target: T1, Frizzled receptor subtype 4 (Fz4) (Homo sapiens, UniProt Q9ULV1); conditions: literature (Xu 2004 and others); cited from earlier work
T1 sequence (Q9ULV1 37-537): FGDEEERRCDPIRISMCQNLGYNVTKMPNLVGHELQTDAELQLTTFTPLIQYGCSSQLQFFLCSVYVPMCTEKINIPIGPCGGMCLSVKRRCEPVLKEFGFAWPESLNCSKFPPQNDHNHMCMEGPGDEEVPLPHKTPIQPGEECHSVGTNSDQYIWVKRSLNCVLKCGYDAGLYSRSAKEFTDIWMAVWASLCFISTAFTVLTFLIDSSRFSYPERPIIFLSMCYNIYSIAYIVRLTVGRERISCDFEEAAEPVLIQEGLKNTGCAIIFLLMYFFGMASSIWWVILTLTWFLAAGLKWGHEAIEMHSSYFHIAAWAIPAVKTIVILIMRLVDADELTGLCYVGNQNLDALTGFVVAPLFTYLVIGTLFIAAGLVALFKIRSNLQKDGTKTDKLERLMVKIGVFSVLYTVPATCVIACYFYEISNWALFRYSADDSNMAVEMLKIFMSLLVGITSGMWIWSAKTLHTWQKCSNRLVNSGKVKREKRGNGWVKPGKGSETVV

Norrin: 131 amino acid secreted protein (NCBI NP_000257.1), ligand of Frizzled-4 that activates Wnt signaling
retinal phenotype on fluorescein angiogram ([1]; OIR mouse, intravitreal injection, FIG. 4): posterior capillary sparing
capillary dropout ([1]; murine capillary dropout model, norrin treatment (FIG. 4 vs FIGS. 1-3)): reduced or eliminated
affinity for Fz4 [2]: nanomolar affinity
